Assay results as given in US6989390B2, “Amonafide salts” (priority 2002, dated 2006).
Where a name gives a salt, the structure may show the parent alone.

Tests used:
[1] = Minimum amount of water/ethanol (1.5/4 v/v) required to dissolve the crude salt at boil (recrystallization); format: physicochemical; settings: minimum water/ethanol (1.5/4 v/v) to dissolve crude product at boil; salt made by the method in column 2
Text: For comparative purposes, between and among organic salts prepared in this manner and for the purposes of subsequent Example 3, Table 3, crude reaction products were recrystalized from water/ethanol (1.5/4 v/v per gram of salt) using the minimum amount of solvent to effect dissolution at boil.
In the case of succinic acid, the organic acid was dispensed as a half-equivalent in order to generate mitonafide hemisuccinate. […] Crude product that was isolated from the hydrogenation reaction mixture was analyzed for purity by high pressure liquid chromatography (HPLC) according to the conditions described in Table 1 above. The crude product was recrystallized from water/ethanol (1.5/4 v/v) using the minimum amount of solvent required to dissolve the crude product at boil, which is shown in the last column of Table 3 for each salt. The recrystallized product was then analyzed for purity by HPLC.
The purities of the crude salts were assessed by HPLC according to the conditions described in Table 1 above. The crude salts were then recrystallized from the minimum amount of water/ethanol (1.5/4 v/v) using the minimum amount of solvent required to dissolve the crude product at boil, which is shown in the last column of Table 3 for each salt. The resulting purified salts were again assessed for purity.
The hydrochloride and methanesulfonic acid salts of amonafide were prepared according to U.S. Pat. No. 5,420,137. Exemplary procedures are as follows: 3 g of crude amonafide free base, obtained as described in the previous two paragraphs, above, were dissolved under reflux in 60 ml of virtually anhydrous ethanol. Subsequently 1 ml of 35% (1 equivalent, estimated) strength hydrochloric acid was added dropwise while shaking vigorously. After cooling, the resulting crystals were filtered off and washed with 10 ml of anhydrous ethanol. The methanesulfonic acid salt was obtained using the same procedure, but replacing hydrochloric acid with 0.8 ml of methanesulfonic acid. The purity was assessed by HPLC using the conditions described in Table 1. The isolated products were then recrystallized from water/ethanol (1.5/4 v/v) using the minimum amounts of solvent required to dissolve the crude product at boil, which are shown for each salt in Table 3. The resulting purified salts were again assessed for purity.
The hydrochloride salt of amonafide was obtained by the method of Zee-Chang et al., U.S. Pat. No. 4,614,820. Exemplary conditions are as follows: a mixture of the hydrochloride salt of N-(dimethylaminoethyl)-3-nitro-1,8-naphthalimide and 10% palladium-on-charcoal in water was hydrogenated at room temperature under 40 lbs/in^2 of hydrogen for one hour. […] To the mixture was added 3 ml of concentrated hydrochloric acid. It was then filtered and the filtrate was evaporated to dryness under reduced pressure. The residue was triturated with 30 ml of absolute ethanol and filtered. The resulting solid was then washed with ether and dried. The purity was assessed by HPLC using the conditions described in Table 1. The crude product was then recrystallized from water/ethanol (1.5/4 v/v) using the minimum amount of solvent (40 mL/g) required to dissolve the crude product at boil. The resulting purified salts were again assessed for purity.

[2] = Solubility assessment of amonafide salts (50, 100, 200 mg in 1 ml USP water or isotonic saline); format: physicochemical
Procedure: A number of organic acid amonafide salts of the present invention were tested for their solubility in aqueous medium and compared with the solubility of the corresponding hydrochloride and methansolufonic acid salts. […] Solutions were allowed to equilibrate for 1 hour, their dissolution status noted, and then refrigerated for an additional hour (at 2° C.). Thereafter, the samples were returned to room temperature and examined for precipitate formation and allowed to equilibrate for another hour until a final inspection for dissolution status.

[3] = 50 mg salt in 1 ml 0.9% sodium chloride (saline), 0 hours
[4] = 50 mg salt in 1 ml 0.9% sodium chloride (saline), 1 hours
[5] = 50 mg salt in 1 ml distilled water, 0 hours
[6] = 50 mg salt in 1 ml distilled water, 1 hours
[7] = 100 mg salt in 1 ml 0.9% sodium chloride (saline), 0 hours
[8] = 100 mg salt in 1 ml 0.9% sodium chloride (saline), 1 hours
[9] = 100 mg salt in 1 ml distilled water, 0 hours
[10] = 100 mg salt in 1 ml distilled water, 1 hours

## amonafide hemisuccinate [Amonafide hemi-succinate]
[1]
  Solvent: 15 mL/g

## CN(C)CCN1C(=O)c2cccc3cc(N)cc(c23)C1=O.O=C(O)CC(=O)O [Amonafide malonate, amonafide malonate]
[1]
  Solvent: 20 mL/g

## Amonafide pyruvate
[2]; [3]
  Dissolution Status: Soluble
[2]; [4]
  Dissolution Status: Soluble
[2]; [5]
  Dissolution Status: Soluble
[2]; [6]
  Dissolution Status: Soluble
[2]; [7]
  Dissolution Status: Soluble
[2]; [8]
  Dissolution Status: Soluble
[2]; [9]
  Dissolution Status: Soluble
[2]; [10]
  Dissolution Status: Soluble
[2]; 200 mg salt in 1 ml 0.9% sodium chloride (saline), 0 hours
  Dissolution Status: Partially Soluble
[2]; 200 mg salt in 1 ml 0.9% sodium chloride (saline), 1 hours
  Dissolution Status: Partially Soluble
[2]; 200 mg salt in 1 ml distilled water, 0 hours
  Dissolution Status: Soluble
[2]; 200 mg salt in 1 ml distilled water, 1 hours
  Dissolution Status: Soluble
[2]; text summary of Table 4
  solubility in distilled water and in saline at high concentration compared with the hydrochloride salt forms / organic salts: more soluble
[1]
  Solvent: 20 mL/g

## CN(C)CCN1C(=O)c2cccc3cc(N)cc(c23)C1=O.CS(=O)(=O)O [Amonafine methanesulfonate, reference compound]
[1]
  Solvent: 25 mL/g

## amonafide maleate
[2]; [3]
  Dissolution Status: Insoluble
[2]; [4]
  Dissolution Status: Insoluble
[2]; [5]
  Dissolution Status: Insoluble
[2]; [6]
  Dissolution Status: Insoluble
[1]
  Solvent: 20 mL/g

## CN(C)CCN1C(=O)c2cccc3cc(N)cc(c23)C1=O.O=C(O)CC(O)(CC(=O)O)C(=O)O [Amonafide Citrate]
[1]
  Solvent: 25 mL/g

## CN(C)CCN1C(=O)c2cccc3cc(N)cc(c23)C1=O.O=C(O)CCCCC(=O)O [Amonafide Adipate]
[1]
  Solvent: 25 mL/g

## Amonafide succinate
[2]; [3]
  Dissolution Status: Insoluble
[2]; [4]
  Dissolution Status: Insoluble
[2]; [5]
  Dissolution Status: Soluble
[2]; [6]
  Dissolution Status: Soluble
[2]; [7]
  Dissolution Status: Insoluble
[2]; [8]
  Dissolution Status: Insoluble
[2]; [9]
  Dissolution Status: Insoluble
[2]; [10]
  Dissolution Status: Insoluble
[1]
  Solvent: 20 mL/g

## CN(C)CCN1C(=O)c2cccc3cc(N)cc(c23)C1=O.O=C(O)CCC(=O)C(=O)O [Amonafide 2-oxoglutarate]
[1]
  Solvent: 30 mL/g

## CN(C)CCN1C(=O)c2cccc3cc(N)cc(c23)C1=O.O=C(O)C(O)C(O)C(=O)O [Amonafide L-tartrate]
[1]
  Solvent: 20 mL/g

## CN(C)CCN1C(=O)c2cccc3cc(N)cc(c23)C1=O [Amonafide HCl, Amonafide Monohydrochloride, reference compound]
[2]; monohydrochloride prepared by salt exchange, 99.2% pure
  solubility in the test panel of Tables 3 and 4: low solubility
[1]
  Solvent: 40 mL/g

## amonafide fumarate
[2]; [3]
  Dissolution Status: Insoluble
[2]; [4]
  Dissolution Status: Insoluble
[2]; [5]
  Dissolution Status: Insoluble
[2]; [6]
  Dissolution Status: Insoluble
[1]
  Solvent: 25 mL/g

## Amonafide Aspartate
[1]
  Solvent: 30 mL/g

## CN(C)CCN1C(=O)c2cccc3cc(N)cc(c23)C1=O.O=C(O)CO [Amonafide glycolate]
[1]
  Solvent: 12.5 mL/g

## CN(C)CCN1C(=O)c2cccc3cc(N)cc(c23)C1=O.O=C(O)c1ccccc1O [Amonafide salicylate]
[1]
  Solvent: 35 mL/g
